Measurements published in EP2975030B1, “DIHYDROPYRIDAZINE-3,5-DIONE DERIVATIVE” (Chugai Seiyaku Kabushiki Kaisha, priority 2013, dated 2014).

System: rat small-intestinal brush border membrane vesicles
Experiment: Inhibitory effect on 33PO4 uptake into rat small-intestinal brush border membrane vesicles (rapid filtration method)
Type: biochemical, Wistar female rat
Conditions: 1 µM test compound; 33PO4 uptake into rat small-intestinal BBMVs, 60 seconds
How it was run: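 33PO4 uptake into rat small-intestinal brush border membrane vesicles measured by rapid filtration. Reactions were stopped with ice-cold buffer (110 mM NaCl, 1 mM KH2PO4, 10 mM HEPES pH 7.5), filtered and washed. Vesicle-associated radioactivity was counted by liquid scintillation.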

Compound | Rate of uptake inhibition (%) (1 µM)
C[C@]12CCCN1N(Cc1cc(Cl)ccc1F)C(=O)C(C(=O)Nc1ccc(C(F)(F)F)cc1-c1cc(C(F)(F)F)ncn1)=C2O [Example 211] | 72
CN1N(Cc2ccc(OCCN3CCOCC3(C)C)c(F)c2F)C(=O)C(C(=O)Nc2ccc(C(F)(F)F)cc2-c2cc(C(F)(F)F)ncn2)=C(O)C12CCC2 [Example 341] | 64
CC(C)[C@H]1C(O)=C(C(=O)Nc2ccc(C(F)(F)F)cc2-c2ccc(C(F)(F)F)nc2)C(=O)N(Cc2cccc(F)c2F)N1C [Example 253] | 40
Cc1c(C#N)ncnc1-c1cc(C(F)(F)F)ccc1NC(=O)C1=C(O)[C@@]2(C)CCCN2N(Cc2cccc(F)c2F)C1=O [Example 24] | 76
Cc1c(C#N)ncnc1-c1cc(Cl)ccc1NC(=O)C1=C(O)[C@H](C(C)(C)C)N(C)N(Cc2ccc(OCCN3CCOCC3)c(F)c2F)C1=O [Example 274] | 43
CN1N(Cc2ccc(OCCCCCC(=O)O)c(F)c2F)C(=O)C(C(=O)Nc2ccc(C(F)(F)F)cc2-c2cc(C(F)(F)F)ncn2)=C(O)C12CCCC2 [Example 334] | 22
CN1N(Cc2ccc(OCCCOC[C@H](O)CO)c(F)c2F)C(=O)C(C(=O)Nc2ccc(C(F)(F)F)cc2-c2cc(C(F)(F)F)ncn2)=C(O)C12CCC2 [Example 389] | 29
CN1N(Cc2ccc(OCCNC(CC(=O)O)CC(=O)O)c(F)c2F)C(=O)C(C(=O)Nc2ccc(C(F)(F)F)cc2-c2cc(C(F)(F)F)ncn2)=C(O)C12CCCC2 [Example 382, 3-[2-[2,3-Difluoro-4-[[10-hydroxy-6-methyl-8-oxo-9-[[4-(trifluoromethyl)-2-[6-(trifluoromethyl)pyrimidin-4-yl]phenyl]carbamoyl]-6,7-diazaspiro[4.5]dec-9-en-7-yl]methyl]phenoxy]ethylamino]pentanedioate] | 21
CN1N(Cc2ccc(OC3COC3)c(F)c2F)C(=O)C(C(=O)Nc2ccc(C(F)(F)F)cc2-c2cc(C(F)(F)F)ncn2)=C(O)C12CCC2 [Example 403, 6-(2,3-Difluoro-4-(oxetan-3-yloxy)benzyl)-9-hydroxy-5-methyl-7-oxo-N-(4-(trifluoromethyl)-2-(6-(trifluoromethyl)pyrimidin-4-yl)phenyl)-5,6-diazaspiro[3.5]non-8-ene-8-carboxamide] | 71
CCCCCN1C(=O)C(C(=O)Nc2ccc(C(F)(F)F)cc2-c2ccc(C(F)(F)F)nc2)=C(O)[C@@]2(C)CCCN12 [Example 26] | 72
Cc1nc(NC(=O)C2=C(O)C3(CCCC3)N(C)N(Cc3cccc(F)c3F)C2=O)ccc1Br [Example 262] | 43
CN1N(Cc2cccc(F)c2F)C(=O)C(C(=O)Nc2ccc(Cl)cc2-c2cc(C(F)(F)F)ncn2)=C(O)C12CCC2 [Example 255] | 80
COc1cc(CN2C(=O)C(C(=O)Nc3ccc(C(F)(F)F)cc3-c3ccc(C(F)(F)F)nc3)=C(O)[C@@]3(C)CCCN23)cc(OC)c1 [Example 202] | 75
CN1N(Cc2ccc(OCCN3C4CCC3COC4)c(F)c2F)C(=O)C(C(=O)Nc2ccc(C(F)(F)F)cc2-c2cc(C(F)(F)F)ncn2)=C(O)C12CCC2 [Example 340] | 63
C[C@]12CCCN1N(Cc1cccc(F)c1F)C(=O)C(C(=O)Nc1ccc(C(F)(F)F)cc1-c1cncc(C#N)c1)=C2O [Example 82] | 100
COCCOc1cc(NC(=O)C2=C(O)[C@@]3(C)CCCN3N(Cc3cccc(F)c3F)C2=O)c(-c2cccc(OC)c2OC)cc1C(F)(F)F [Example 92] | 81
C[C@]12CCCN1N(Cc1cc(F)c(F)c(F)c1)C(=O)C(C(=O)Nc1cc(F)c(Br)c(F)c1)=C2O [Example 197] | 82
Cc1cc(NC(=O)C2=C(O)[C@@H]3CCCCN3N(Cc3c(F)c(F)cc4cc[nH]c34)C2=O)c(C(F)(F)F)o1 [Example 17, (4aS)-1-[(5,6-Difluoro-1H-indol-7-yl)methyl]-4-hvdroxy-N-[5-methyl-2-(trifluoromethyl)furan-3-yl]-2-oxo-5,6,7,8-tetrahydro-4aH-pyrido[1,2-b]pyridazine-3-carboxamide] | 33
(4aS)-1-[(2,3-Difluorophenyl)methyl]-6,6-difluoro-4-hydroxy-N-[5-methyl-2-(trifluoromethyl)furan-3-yl]-2-oxo-5,7-dihydro-4aH-pyrrolo[1,2-b]pyridazine-3-carboxamide [Example 5] | 54
CCC12CCCCN1N(Cc1cccc(F)c1F)C(=O)C(C(=O)Nc1cc(C)oc1C(F)(F)F)=C2O (stereo not drawn) [Example 19, 1-[2,3-(Difluorophenyl)methyl]-4a-ethyl-4-hydroxy-N-[5-methyl-2-(trifluoromethyl)furan-3-yl]-2-oxo-5,6,7,8-tetrahydropyrido[1,2-b]pyridazine-3-carboxamide] | 41
C[C@]12CCCN1N(Cc1cccc(Cl)c1F)C(=O)C(C(=O)Nc1ccc(C(F)(F)F)cc1-c1ccc(C(F)(F)F)nc1)=C2O [Example 198] | 75
COCCN(CCOC)CCOc1ccc(CN2C(=O)C(C(=O)Nc3ccc(C(F)(F)F)cc3-c3cc(C(F)(F)F)ncn3)=C(O)C3(CCC3)N2C)c(F)c1F [Example 348] | 31
COCCN1CC[C@@H](Oc2ccc(CN3C(=O)C(C(=O)Nc4ccc(C(F)(F)F)cc4-c4cc(C(F)(F)F)ncn4)=C(O)C4(CCC4)N3C)c(F)c2F)C1 [Example 405, 6-[[2,3-Difluoro-4-[(3R)-1-(2-methoxyethyl)pyrrolidin-3-yl]oxyphenyl]methyl]-9-hydroxy-5-methyl-7-oxo-N-[4-(trifluoromethyl)-2-[6-(trifluoromethyl)pyrimidin-4-yl)phenyl]-5,6-diazaspiro[3.5]non-8-ene-8-carboxamide] | 30
C[C@]12CCCN1N(Cc1ccc(OCCN3CCOCC3)c(F)c1F)C(=O)C(C(=O)Nc1ccc(C(F)(F)F)nc1-c1cncc(C(F)(F)F)c1)=C2O [Example 106] | 79
COCCOCCOc1ccc(CN2C(=O)C(C(=O)Nc3ccc(C(F)(F)F)cc3-c3cc(C(F)(F)F)ncn3)=C(O)C3(CCC3)N2C)c(F)c1F [Example 401] | 39
CN1N(Cc2ccc(OCCCOC[C@H](O)CO)c(F)c2F)C(=O)C(C(=O)Nc2ccc(C(F)(F)F)cc2-c2ccc(C(F)(F)F)nc2)=C(O)C12CCC2 [Example 383, 6-[[4-[3-[(2R)-2,3-Dihydroxypropoxy]propoxy]-2,3-difluorophenyl]methyl]-9-hydroxy-5-methyl-7-oxo-N-[4-(trifluoromethyl)-2-[6-(trifluoromethyl)pyrydin-3-yl]phenyl]-5,6-diazaspiro[3.5]non-8-ene-8-carboxamide] | 126
CN1N(Cc2ccc(OCCN(CCO)CCO)c(F)c2F)C(=O)C(C(=O)Nc2ccc(C(F)(F)F)cc2-c2cc(C(F)(F)F)ncn2)=C(O)C12CCC2 [Example 351] | 22
